Data from patent publication US20050170391A1, “TAUT1 transporters expressed in blood brain barrier cells” (Xenoport, Inc., priority 2004, published 2005).

Tests used:
[1] = biological target: T1, mouse homolog of the transporter (TAUT1) (Mus musculus, UniProt O35316); conditions: literature IC50, mouse homolog of the transporter; read-out: Literature Km or IC50; cited from earlier work
T1 sequence (O35316 1-621): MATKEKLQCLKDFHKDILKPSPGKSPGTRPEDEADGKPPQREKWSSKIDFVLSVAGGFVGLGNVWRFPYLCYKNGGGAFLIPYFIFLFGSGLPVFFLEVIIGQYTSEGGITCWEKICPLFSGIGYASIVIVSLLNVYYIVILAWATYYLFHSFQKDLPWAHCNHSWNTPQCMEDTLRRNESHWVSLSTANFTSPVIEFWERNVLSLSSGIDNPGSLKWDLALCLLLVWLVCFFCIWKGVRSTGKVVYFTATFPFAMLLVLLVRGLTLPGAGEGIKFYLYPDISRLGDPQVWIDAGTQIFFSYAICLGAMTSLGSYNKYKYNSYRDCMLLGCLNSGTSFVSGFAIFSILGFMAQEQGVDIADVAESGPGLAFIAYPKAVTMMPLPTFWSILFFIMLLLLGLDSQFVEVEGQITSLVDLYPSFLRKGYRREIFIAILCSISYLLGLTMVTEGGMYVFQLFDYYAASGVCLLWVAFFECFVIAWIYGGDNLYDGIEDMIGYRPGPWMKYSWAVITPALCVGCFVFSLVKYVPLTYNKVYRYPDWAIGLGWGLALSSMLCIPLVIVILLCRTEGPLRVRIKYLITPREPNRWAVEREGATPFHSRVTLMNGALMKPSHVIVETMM

TAUT1 = biological target: T2, TAUT1 (Homo sapiens, UniProt P31641); assay: hTAUT1 direct uptake assay in HEK-TREx-TAUT1 cells (LC-MS-MS); assay type: cell-based; set-up: expressed in transfected cells; host or cells: HEK-TREx cells (HEK-TREx-TAUT1 inducible line); conditions: direct uptake into HEK-TREx-TAUT1 cells, +TET minus no TET; 15 min, room temperature
T2 sequence (P31641 1-620): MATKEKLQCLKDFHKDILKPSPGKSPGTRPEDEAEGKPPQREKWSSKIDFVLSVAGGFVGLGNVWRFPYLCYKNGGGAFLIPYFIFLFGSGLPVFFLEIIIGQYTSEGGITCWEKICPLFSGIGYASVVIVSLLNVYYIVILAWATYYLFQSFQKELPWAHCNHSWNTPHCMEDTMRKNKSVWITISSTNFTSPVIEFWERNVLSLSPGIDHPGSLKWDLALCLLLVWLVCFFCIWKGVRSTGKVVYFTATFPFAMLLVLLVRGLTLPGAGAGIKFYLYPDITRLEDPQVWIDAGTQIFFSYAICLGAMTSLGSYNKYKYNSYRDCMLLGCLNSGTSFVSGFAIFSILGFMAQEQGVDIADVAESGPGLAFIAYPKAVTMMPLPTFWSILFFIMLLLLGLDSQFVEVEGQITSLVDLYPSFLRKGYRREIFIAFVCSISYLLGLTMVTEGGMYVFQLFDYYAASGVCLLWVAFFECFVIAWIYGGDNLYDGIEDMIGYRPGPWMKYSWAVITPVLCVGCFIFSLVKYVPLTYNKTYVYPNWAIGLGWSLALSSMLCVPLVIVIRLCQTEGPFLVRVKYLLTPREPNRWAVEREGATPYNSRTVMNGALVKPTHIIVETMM
Procedure: A modified direct uptake assay was developed to determine the ability of test compounds to be transported into HEK-TREx cells induced to over-express hTAUT. Four concentrations (bracketing the affinity as measured by competition assays) per compound were routinely tested. Non-specific uptake was determined by measuring the uptake into cells not induced to express the transporter (“no tet”).
Typically, four concentrations bracketing the IC50 were tested. The highest test concentration for each compound was made in an eppendorf tube and diluted into HBSS. The samples were robustly vortexed and centrifuged for 10 minutes at 13,200 rpm to spin down any precipitate. […] Three additional 2-fold dilutions were made in the subsequent rows (B-D or […]) in HBSS.
An internal standard of 50 μM propranolol in 50:50 ethanol:water was also prepared. To prepare standard curves, several concentrations of the test compounds were diluted into HEK cell extract (prepared from tet-treated, mock-incubated and extracted cells as described below) with a final internal standard concentration of 5 μM. Standards of 10, 5, 1, 0.5, 0.1, 0.05, 0.01 and 0.005 μM were routinely run for each test compound.
HEK-TREx-hTAUT cells were plated in 96-well plates and treated with plus (columns 1-3 and 7-9) or without tetracycline (or a tetracycline analog; columns 4-6 and 10-12). The cells were removed from the incubator, and the growth media was removed from the cells. The cells were washed twice in room temperature HBSS (100 μl/well/wash) using a 96-well plate washer (Bio Tek ELX405). Alternatively, cells were washed manually with equivalent volumes using a multichannel pipettor. Immediately before the assay was begun, the final 100 μl wash solution was removed from the cells. The assay was started by using a 96-well pipettor to add 50 μl from the “compound” plate to each well of the HEK-TREx-hTAUT cell plate. The plate was incubated at room temperature for 15 minutes.
After the final wash, as much of the wash buffer as possible was removed by aspirating the wells with a probe that reached the bottom of the wells. (Residual salts from the wash buffer can adversely affect the LC-MS-MS by disrupting the LC method or by suppressing the MS signal.) 150 μl of a 50:50 ethanol:water solution was added to each well to lyse the cells and extract the test compound. The plate was covered and allowed to sit for 20 minutes at room temperature to ensure cell lysis. (The 50% ethanol solution is the generic solution for extraction. For compounds soluble in water or other solvents compatible with the LC-MS-MS, such solutions can be tried to determine they interfere with the LC-MS-MS analysis. If the organic solvent concentration is too high (>50%), it may be detrimental to the LC run).
120 μl of the cell extract was removed from each well and transferred to a fresh 96-well v-bottom polypropylene plate. This plate was covered with an adherent cover (top seal) and centrifuged for 15 minutes at 5,700 rpm (Allegra 25R centrifuge) at 4° C. to pellet any cell precipitate. 10 μl of the 50 μM propranolol solution was added to each well of a fresh 96-well plate (a plate amenable for sampling in the LC-MS-MS). 90 μl of the supernatant from the centrifuged cell extract was removed and transferred to the plate containing the 10 μl of propranolol (using the Cybi-well 96-well pipettor). The sample plate with a bubble lid suitable for use with the LC-MS-MS and placed on a plate shaker for 5 to 10 minutes to mix the sample and the propranolol. The samples were submitted for LC-MS-MS analysis. The levels of intracellular compounds were determined by converting the peak area to concentration by extrapolating from the standard curve for each compound. Uptake was expressed as μM/well.
While the uptake values in these experiments were expressed as “μM/well”, the values can be easily converted to “pmol/well” or “pmol/well/unit time”. All of the samples were extracted with 150 μl of extraction buffer.

Row | Compound | IC50 [1] [µM] | Vmax (TAUT1) [μM/well] | Km (TAUT1) [µM] | pKm (TAUT1)
1 | NCCCC(=O)O [GABA, γ-aminobutyric acid] | 500 | 12 |  | 
2 | O=C(O)Cc1c[nH]cn1 [IAA, 4-imidazole acetic acid] |  | 6.1 |  | 
3 | N=C(N)NCCC(=O)O [GPA] | 120 | 6.4 | 120 | 4.0
4 | NCC(CC(=O)O)c1ccc(Cl)cc1 (stereo not shown) [R,S-Baclofen] |  | 5.4 | 1700 | 2.9
